{"source": "patent US20050069522A1", "about": "“Combination pharmaceutical agents as inhibitors of HCV replication” (priority 2002, published 2005)", "key": {"[1]": {"system": "HCV replicon (HCV 1b-377-neo replicon cells)", "assay": "HCV replicon cell line FRET assay", "format": "cell-based", "details": "Hepatitis C virus"}, "[2]": {"assay": "Alamar blue cytotoxicity (CC50), wild-type replicon cells", "format": "cell-based", "details": "human, Huh-7 cells carrying the wild-type HCV 377-neo replicon; Wild-type replicon cell line"}, "[3]": {"details": "human"}, "[4]": {"system": "wild-type Blast/Luciferase HCV replicon", "format": "cell-based", "details": "0.5 μM Compound 124"}, "[5]": {"details": "read-out: Replicon Inhibition Range EC50"}, "[6]": {"details": "Wild-type replicon cell line, FRET assay, read-out: EC50"}, "[7]": {"details": "HCV replicon cell line, FRET assay, read-out: Replicon Inhibition Range EC50"}}, "note": "Where two headings read alike, the source gives them in different places.", "data": [{"smiles": "C[C@H](NC(=O)OCc1ccccc1)C(=O)Nc1ccc(C2S/C(=N\\c3cccc(F)c3)N(Cc3ccco3)C2=O)cc1", "note": "(stereo partly drawn) [Compound 1, (1S-(4-[2-(3-Fluorophenylimino)-3-furan-2-ylmethyl-4-oxo-thiazolidin-5-yl]-phenylcarbamoyl)ethyl)carbamic acid benzyl ester]", "values": [{"measurement": "EC50", "setting": "[1]; [5]", "result": "100 to 1000", "unit": "nM"}, {"measurement": "EC50", "setting": "[1]; [6]", "result": 1500, "unit": "nM"}, {"measurement": "CC50 at 72 h", "setting": "[2]", "result": "> 5000", "unit": "nM"}, {"measurement": "CC50 at 72 h", "setting": "[3]", "result": "> 5000", "unit": "nM"}]}, {"smiles": "C[C@H](NC(=O)Cc1ccccc1)C(=O)Nc1ccc(C2S/C(=N\\c3cccc(F)c3)N(Cc3ccco3)C2=O)cc1", "note": "(stereo partly drawn) [Compound 124, (N-{4-[2-(3-fluorophenylimino)-3-furan-2-ylmethyl-4-oxo-thiazolidin-5-yl]phenyl}-2S-(phenylacetylamino))propionamide]", "values": [{"measurement": "EC50", "setting": "[1]; [5]", "result": "< 100", "unit": "nM"}, {"measurement": "EC50", "setting": "[1]; [6]", "result": 103, "unit": "nM"}, {"measurement": "CC50 at 72 h", "setting": "[2]", "result": "> 5000", "unit": "nM"}, {"measurement": "replication of the replicon in the presence of compound", "setting": "[4]", "result": "completely inhibited"}, {"measurement": "CC50 at 72 h", "setting": "[3]", "result": "> 5000", "unit": "nM"}]}, {"smiles": "O=C(Nc1ccc(C2S/C(=N\\c3ccc(N4CCOCC4)cc3)N(Cc3ccccn3)C2=O)cc1)[C@@H]1CCCN1C(=S)NCc1ccccc1", "note": "(stereo partly shown) [Compound 136]", "values": [{"measurement": "EC50", "setting": "[1]; [7]", "result": "< 100", "unit": "nM"}]}, {"smiles": "C[C@H](NC(=O)Cc1ccccc1)C(=O)Nc1ccc(C2SC3=Nc4ccccc4CN3C2=O)cc1", "note": "(stereo partly shown) [Compound 137]", "values": [{"measurement": "EC50", "setting": "[1]; [7]", "result": "100 to 1000", "unit": "nM"}]}, {"smiles": "C[C@H](NC(=O)OCc1ccccc1)C(=O)Nc1ccc(C2SC3=Nc4ccccc4CN3C2=O)cc1", "note": "(stereo partly shown) [Compound 138]", "values": [{"measurement": "EC50", "setting": "[1]; [7]", "result": "1000 to 5000", "unit": "nM"}]}, {"smiles": "O=C(Nc1ccc(C2SC3=Nc4ccccc4CN3C2=O)cc1)[C@H]1CCCN1C(=O)OCc1ccccc1", "note": "(stereo partly shown) [Compound 139]", "values": [{"measurement": "EC50", "setting": "[1]; [7]", "result": "100 to 1000", "unit": "nM"}]}]}
